According to patent US8541588B2, “Sulfonamide derivatives” (Pfizer Limited, priority 2009, dated 2013):

Target: T1, Nav1.7 (or SCN9A) channel; HEK cells stably transfected with hSCN9A (Homo sapiens, UniProt Q15858)
T1 construct: expressed in transfected cells
Assay: Nav1.7 block, PatchXpress 7000 automated whole-cell voltage clamp, estimated IC50 (EIC50)
Type: cell-based
Details: estimated IC50, hSCN9A HEK cells, PatchXpress platform

T1 sequence (Q15858 whole entry): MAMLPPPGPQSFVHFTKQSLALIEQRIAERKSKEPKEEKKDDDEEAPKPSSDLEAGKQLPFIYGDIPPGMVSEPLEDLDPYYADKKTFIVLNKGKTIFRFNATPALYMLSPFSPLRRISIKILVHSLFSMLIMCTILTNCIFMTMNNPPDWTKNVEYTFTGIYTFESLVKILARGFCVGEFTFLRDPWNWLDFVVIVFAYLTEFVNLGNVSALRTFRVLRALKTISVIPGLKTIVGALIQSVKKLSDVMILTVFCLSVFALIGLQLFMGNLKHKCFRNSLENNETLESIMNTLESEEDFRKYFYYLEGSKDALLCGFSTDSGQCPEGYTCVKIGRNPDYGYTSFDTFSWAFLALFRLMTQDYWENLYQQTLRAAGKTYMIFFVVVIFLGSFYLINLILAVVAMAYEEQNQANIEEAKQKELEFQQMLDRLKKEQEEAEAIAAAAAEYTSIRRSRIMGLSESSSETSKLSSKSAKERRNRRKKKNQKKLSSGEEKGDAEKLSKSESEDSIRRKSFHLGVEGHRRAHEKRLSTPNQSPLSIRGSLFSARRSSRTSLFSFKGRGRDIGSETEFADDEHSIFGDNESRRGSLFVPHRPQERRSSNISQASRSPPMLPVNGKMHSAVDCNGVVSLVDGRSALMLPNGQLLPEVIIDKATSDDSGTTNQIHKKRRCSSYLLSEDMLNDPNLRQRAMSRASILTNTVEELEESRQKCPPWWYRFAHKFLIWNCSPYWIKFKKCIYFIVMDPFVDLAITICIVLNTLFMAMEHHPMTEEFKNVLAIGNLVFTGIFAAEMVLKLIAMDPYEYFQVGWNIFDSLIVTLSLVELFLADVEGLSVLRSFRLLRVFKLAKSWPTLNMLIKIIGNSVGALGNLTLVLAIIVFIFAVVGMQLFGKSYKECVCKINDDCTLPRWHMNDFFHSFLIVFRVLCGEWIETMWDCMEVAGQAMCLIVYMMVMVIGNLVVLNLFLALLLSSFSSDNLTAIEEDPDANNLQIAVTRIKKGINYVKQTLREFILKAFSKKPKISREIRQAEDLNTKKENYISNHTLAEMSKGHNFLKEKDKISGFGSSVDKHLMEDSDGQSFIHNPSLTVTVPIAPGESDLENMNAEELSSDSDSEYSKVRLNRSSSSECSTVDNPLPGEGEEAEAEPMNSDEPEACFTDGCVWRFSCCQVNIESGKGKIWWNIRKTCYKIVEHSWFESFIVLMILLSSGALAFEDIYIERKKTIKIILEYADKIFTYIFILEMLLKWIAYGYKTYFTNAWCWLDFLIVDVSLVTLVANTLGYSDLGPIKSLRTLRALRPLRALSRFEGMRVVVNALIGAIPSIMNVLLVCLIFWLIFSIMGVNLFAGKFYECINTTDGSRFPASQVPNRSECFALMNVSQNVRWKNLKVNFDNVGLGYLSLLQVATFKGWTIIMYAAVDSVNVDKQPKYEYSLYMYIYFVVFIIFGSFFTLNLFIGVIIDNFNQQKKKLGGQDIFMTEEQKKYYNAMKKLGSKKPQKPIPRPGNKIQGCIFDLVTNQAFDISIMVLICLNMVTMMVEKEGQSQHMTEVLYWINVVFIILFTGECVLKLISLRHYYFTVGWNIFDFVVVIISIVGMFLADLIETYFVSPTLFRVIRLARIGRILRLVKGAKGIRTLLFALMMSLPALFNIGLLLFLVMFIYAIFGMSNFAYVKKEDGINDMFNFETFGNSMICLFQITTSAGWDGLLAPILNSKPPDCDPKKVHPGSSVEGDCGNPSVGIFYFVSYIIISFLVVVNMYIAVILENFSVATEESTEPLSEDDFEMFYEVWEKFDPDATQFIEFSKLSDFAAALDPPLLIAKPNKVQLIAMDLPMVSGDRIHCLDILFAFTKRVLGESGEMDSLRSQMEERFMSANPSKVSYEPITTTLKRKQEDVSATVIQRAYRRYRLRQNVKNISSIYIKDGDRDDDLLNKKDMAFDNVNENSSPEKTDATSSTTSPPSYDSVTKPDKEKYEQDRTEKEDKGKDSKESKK

IC50 (Examples 283-814) [nM] | IC50 (Examples 815-1040) [nM] | Compound
32 |  | Cn1nccc1-c1ccc(I)cc1Oc1ccc(S(=O)(=O)Nc2ncc(F)s2)cc1C#N [Example 780, 3-cyano-N-(5-fluoro-1,3-thiazol-2-yl)-4-[5-iodo-2-(1-methyl-1H-pyrazol-5-yl)phenoxy]benzenesulfonamide]
7.8 |  | Cn1nccc1-c1cc(OC(F)(F)F)ccc1Oc1ccc(S(=O)(=O)Nc2nccs2)cc1C#N [Example 783, 3-cyano-4-[2-(1-methyl-1H-pyrazol-5-yl)-4-(trifluoromethoxy)phenoxy]-N-1,3-thiazol-2-ylbenzenesulfonamide]
40 |  | N#Cc1cc(S(=O)(=O)Nc2ncc(Cl)s2)ccc1Oc1ccc(F)cc1-c1cn[nH]c1 [Example 785, N-(5-Chloro-1,3-thiazol-2-yl)-3-cyano-4-[4-fluoro-2-(1H-pyrazol-4-yl)phenoxy]benzenesulfonamide]
7.6 |  | N#Cc1cc(S(=O)(=O)Nc2ncc(Cl)s2)ccc1Oc1ccc(Cl)cc1-c1cn[nH]c1 [Example 786, N-(5-Chloro-1,3-thiazol-2-yl)-3-cyano-4-[4-chloro-2-(1H-pyrazol-4-yl)phenoxy]benzenesulfonamide]
7.2 |  | Nc1cc(-c2cc(Cl)ccc2Oc2cc(F)c(S(=O)(=O)Nc3ncns3)cc2F)ccn1 [Example 787, 4-[2-(2-aminopyridin-4-yl)-4-chlorophenoxy]-2,5-difluoro-N-1,2,4-thiadiazol-5-ylbenzenesulfonamide]
3.1 |  | N#Cc1cc(S(=O)(=O)Nc2ncns2)ccc1Oc1ccc(OC(F)(F)F)cc1-c1ccn[nH]1 [Example 793, 3-cyano-4-[2-(1H-pyrazol-5-yl)-4-(trifluoromethoxy)phenoxy]-N-1,2,4-thiadiazol-5-ylbenzenesulfonamide]
4.6 |  | Cn1nccc1-c1cc(OC(F)(F)F)ccc1Oc1ccc(S(=O)(=O)Nc2ncns2)cc1C#N [Example 795, 3-cyano-4-[2-(1-methyl-1H-pyrazol-5-yl)-4-(trifluoromethoxy)phenoxy]-N-1,2,4-thiadiazol-5-ylbenzenesulfonamide]
1.2 |  | N#Cc1cc(S(=O)(=O)Nc2ncns2)ccc1Oc1cc(F)c(Cl)cc1-c1cn[nH]c1 [Example 804, 4-[4-chloro-5-fluoro-2-(1H-pyrazol-4-yl)phenoxy]-3-cyano-N-1,2,4-thiadiazol-5-ylbenzenesulfonamide]
6.2 |  | O=S(=O)(Nc1ncns1)c1cc(F)c(Oc2ccc(C(F)(F)F)cc2-c2ccnnc2)cc1F [Example 805, 2,5-difluoro-4-[2-pyridazin-4-yl-4-(trifluoromethyl)phenoxy]-N-1,2,4-thiadiazol-5-ylbenzenesulfonamide]
5.4 |  | CN1CC(n2nccc2-c2cc(F)ccc2Oc2cc(F)c(S(=O)(=O)Nc3ncns3)cc2Cl)C1 [Example 806, 5-Chloro-2-fluoro-4-{4-fluoro-2-[1-(1-methylazetidin-3-yl)-1H-pyrazol-5-yl]phenoxy}-N-1,2,4-thiadiazol-5-ylbenzenesulfonamide]
38 |  | N#Cc1cc(S(=O)(=O)Nc2cscn2)ccc1Oc1ccc(Cl)cc1-c1ccnn1C1CNC1 [Example 809, 4-[2-(1-azetidin-3-yl-1H-pyrazol-5-yl)-4-chlorophenoxy]-3-cyano-N-1,3-thiazol-4-ylbenzenesulfonamide]
3.8 |  | O=S(=O)(Nc1ncns1)c1cc(Cl)c(Oc2ccc(F)cc2-c2ccnn2C2CNC2)cc1F [Example 810, 4-[2-(1-azetidin-3-yl-1H-pyrazol-5-yl)-4-fluorophenoxy]-5-chloro-2-fluoro-N-1,2,4-thiadiazol-5-ylbenzenesulfonamide]
 | 0.6 | N#Cc1cc(S(=O)(=O)Nc2ncns2)ccc1Oc1ccc(I)cc1-c1cccc(CN2CCC2)c1 [Example 815, 4-{[3′-(azetidin-1-ylmethyl)-5-iodobiphenyl-2-yl]oxy}-3-cyano-N-1,2,4-thiadiazol-5-ylbenzenesulfonamide]
 | 320 | N#Cc1cc(S(=O)(=O)Nc2nncs2)ccc1Oc1ccc(Cl)cc1-c1ccnc(N)c1 [Example 818, 4-[2-(2-aminopyridin-4-yl)-4-chlorophenoxy]-3-cyano-N-1,3,4-thiadiazol-2-ylbenzenesulfonamide]
 | 7.4 | O=C(c1cccc(-c2cc(Cl)ccc2Oc2cc(F)c(S(=O)(=O)Nc3ncns3)cc2Cl)c1)N1CCC1 [Example 823, 4-{[3′-(azetidin-1-ylcarbonyl)-5-chlorobiphenyl-2-yl]oxy}-5-chloro-2-fluoro-N-1,2,4-thiadiazol-5-ylbenzenesulfonamide]
 | 4.7 | O=C(c1cccc(-c2cc(Cl)ccc2Oc2cc(F)c(S(=O)(=O)Nc3ncns3)cc2Cl)c1)N1CC(O)C1 [Example 824, 5-chloro-4-({5-chloro-3′-[(3-hydroxyazetidin-1-yl)carbonyl]biphenyl-2-yl}oxy)-2-fluoro-N-1,2,4-thiadiazol-5-ylbenzenesulfonamide]
 | 190 | O=S(=O)(Nc1ncns1)c1ccc(Oc2ccc(Cl)cc2C2CCOCC2)c(F)c1 [Example 825, 4-[4-chloro-2-(tetrahydro-2H-pyran-4-yl)phenoxy]-3-fluoro-N-1,2,4-thiadiazol-5-ylbenzenesulfonamide]
 | 300 | N#Cc1cc(S(=O)(=O)Nc2ncns2)ccc1Oc1ccc(F)cc1-c1cc(N)n[nH]1 [Example 826, 4-[2-(3-amino-1H-pyrazol-5-yl)-4-fluorophenoxy]-3-cyano-N-1,2,4-thiadiazol-5-ylbenzenesulfonamide]

Continued, compound first:

Compound | IC50 (Examples 283-814) [nM] | IC50 (Examples 815-1040) [nM]
O=S(=O)(Nc1ncns1)c1cc(F)c(Oc2ccc(F)cc2-c2ccn[nH]2)cc1F [Example 781, 2,5-difluoro-4-[4-fluoro-2-(1H-pyrazol-5-yl)phenoxy]-N-1,2,4-thiadiazol-5-ylbenzenesulfonamide] | 22 | 
O=S(=O)(Nc1ncns1)c1cc(F)c(Oc2ccc(C(F)(F)F)cc2-c2ccn[nH]2)cc1F [Example 789, 2,5-difluoro-4-[2-(1H-pyrazol-5-yl)-4-(trifluoromethyl)phenoxy]-N-1,2,4-thiadiazol-5-ylbenzenesulfonamide] | 2.1 | 
O=S(=O)(Nc1ncns1)c1cc(F)c(Oc2ccc(C(F)(F)F)cc2-c2cn[nH]c2)cc1F [Example 790, 2,5-difluoro-4-[2-(1H-pyrazol-4-yl)-4-(trifluoromethyl)phenoxy]-N-1,2,4-thiadiazol-5-ylbenzenesulfonamide] | 1.2 | 
Nc1[nH]ncc1-c1cc(Cl)ccc1Oc1cc(F)c(S(=O)(=O)Nc2ncns2)cc1Cl [Example 794, 4-[2-(5-amino-1H-pyrazol-4-yl)-4-chlorophenoxy]-5-chloro-2-fluoro-N-1,2,4-thiadiazol-5-ylbenzenesulfonamide] | 4.8 | 
O=S(=O)(Nc1ncns1)c1cc(Cl)c(Oc2ccc(Cl)cc2C2CCNCC2)cc1F [Example 796, 5-chloro-4-(4-chloro-2-piperidin-4-ylphenoxy)-2-fluoro-N-1,2,4-thiadiazol-5-ylbenzenesulfonamide] | 2.1 | 
O=S(=O)(Nc1ccc(F)cn1)c1cc(Cl)c(Oc2ccc(C(F)(F)F)cc2C2CCNCC2)cc1F [Example 800, 5-Chloro-2-fluoro-N-(5-fluoropyridin-2-yl)-4-[2-piperidin-4-yl-4-(trifluoromethyl)phenoxy]benzenesulfonamide] | 52 | 
Nc1n[nH]cc1-c1cc(Cl)ccc1Oc1cc(F)c(S(=O)(=O)Nc2nncs2)cc1Cl [Example 803, 4-[2-(5-amino-1H-pyrazol-4-yl)-4-chlorophenoxy]-5-chloro-2-fluoro-N-1,3,4-thiadiazol-2-ylbenzenesulfonamide] | 4.8 | 
CN1CC(n2nccc2-c2cc(F)ccc2Oc2cc(F)c(S(=O)(=O)Nc3cscn3)cc2Cl)C1 [Example 807, 5-Chloro-2-fluoro-4-{4-fluoro-2-[1-(1-methylazetidin-3-yl)-1H-pyrazol-5-yl]phenoxy}-N-1,3-thiazol-4-ylbenzenesulfonamide] | 15 | 
O=S(=O)(Nc1cscn1)c1cc(Cl)c(Oc2ccc(F)cc2-c2ccnn2C2CNC2)cc1F [Example 808, 4-[2-(1-Azetidin-3-yl-1H-pyrazol-5-yl)-4-fluorophenoxy]-5-chloro-2-fluoro-N-1,3-thiazol-4-ylbenzenesulfonamide] | 7 | 
Nc1cc(-c2cc(Cl)ccc2Oc2cc(F)c(S(=O)(=O)Nc3ccncn3)cc2Cl)ccn1 [Example 812, 4-[2-(2-aminopyridin-4-yl)-4-chlorophenoxy]-5-chloro-2-fluoro-N-pyrimidin-4-ylbenzenesulfonamide] | 5.1 | 
Nc1cc(-c2cc(Cl)ccc2Oc2cc(F)c(S(=O)(=O)Nc3nncs3)cc2Cl)ccn1 [Example 814, 4-[2-(2-aminopyridin-4-yl)-4-chlorophenoxy]-5-chloro-2-fluoro-N-1,3,4-thiadiazol-2-ylbenzenesulfonamide] | 6.2 | 
Cc1[nH]ncc1-c1cc(Cl)ccc1Oc1cc(F)c(S(=O)(=O)Nc2nncs2)cc1Cl [Example 816, 5-chloro-4-[4-chloro-2-(5-methyl-1H-pyrazol-4-yl)phenoxy]-2-fluoro-N-1,3,4-thiadiazol-2-ylbenzenesulfonamide] |  | 11
Cc1nnc(NS(=O)(=O)c2cc(Cl)c(Oc3ccc(Cl)cc3-c3ccnn3C)cc2F)s1 [Example 817, 5-chloro-4-[4-chloro-2-(1-methyl-1H-pyrazol-5-yl)phenoxy]-2-fluoro-N-(5-methyl-1,3,4-thiadiazol-2-yl)benzenesulfonamide] |  | 300
COCCn1ccc(-c2cc(Cl)ccc2Oc2cc(F)c(S(=O)(=O)Nc3nncs3)cc2Cl)n1 [Example 819, 5-chloro-4-{4-chloro-2-[1-(2-methoxyethyl)-1H-pyrazol-3-yl]phenoxy}-2-fluoro-N-1,3,4-thiadiazol-2-ylbenzenesulfonamide] |  | 2400
Nc1cc(-c2cc(Cl)ccc2Oc2cc(F)c(S(=O)(=O)Nc3nncs3)cc2F)ccn1 [Example 820, 4-[2-(2-aminopyridin-4-yl)-4-chlorophenoxy]-2,5-difluoro-N-1,3,4-thiadiazol-2-ylbenzenesulfonamide] |  | 230
O=S(=O)(Nc1nncs1)c1cc(F)c(Oc2ccc(Cl)cc2-c2cn[nH]c2)cc1F [Example 821, 4-[4-chloro-2-(1H-pyrazol-4-yl)phenoxy]-2,5-difluoro-N-1,3,4-thiadiazol-2-ylbenzenesulfonamide] |  | 100
